Data: PubChem BioAssay (NCI)
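Briefly, cells in 96-well plates were exposed to five compound concentrations for 48 h, and endpoints were estimated by linear interpolation. Abbreviation: GI50, concentration required for 50% inhibition of growth. Definition used: TGI = concentration required for complete inhibition of growth.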

Key:
Assay in all cases: NCI tumour cell line growth inhibition, 48 h
SF-539 CNS = tested on: SF-539 CNS
T-47D breast = tested on: T-47D breast
SW-620 colon = tested on: SW-620 colon
SK-MEL-5 melanoma = tested on: SK-MEL-5 melanoma
SK-MEL-28 melanoma = tested on: SK-MEL-28 melanoma
U251 CNS = tested on: U251 CNS
IGROV1 ovarian = tested on: IGROV1 ovarian
K-562 leukemia = tested on: K-562 leukemia
MDA-MB-231 breast = tested on: MDA-MB-231 breast
SF-295 CNS = tested on: SF-295 CNS
SNB-19 CNS = tested on: SNB-19 CNS
SK-OV-3 ovarian = tested on: SK-OV-3 ovarian
MDA-MB-435 = tested on: MDA-MB-435
SK-MEL-2 melanoma = tested on: SK-MEL-2 melanoma
NCI-H522 lung = tested on: NCI-H522 lung
HCT-15 colon = tested on: HCT-15 colon
CAKI-1 renal = tested on: CAKI-1 renal
UACC-257 melanoma = tested on: UACC-257 melanoma
SNB-75 CNS = tested on: SNB-75 CNS
EKVX NSCLC = tested on: EKVX NSCLC
A549 NSCLC = tested on: A549 NSCLC
A498 renal = tested on: A498 renal
CCRF-CEM leukemia = tested on: CCRF-CEM leukemia
NCI-H23 lung = tested on: NCI-H23 lung
ACHN renal = tested on: ACHN renal
HOP-92 NSCLC = tested on: HOP-92 NSCLC
786-0 renal = tested on: 786-0 renal
HT29 colon = tested on: HT29 colon
MOLT-4 leukemia = tested on: MOLT-4 leukemia
NCI-H460 lung = tested on: NCI-H460 lung
SN12C renal = tested on: SN12C renal
RPMI-8226 leukemia = tested on: RPMI-8226 leukemia
MCF7 breast = tested on: MCF7 breast
UACC-62 melanoma = tested on: UACC-62 melanoma
NCI/ADR-RES ovarian = tested on: NCI/ADR-RES ovarian
M14 melanoma = tested on: M14 melanoma
NCI-H226 lung = tested on: NCI-H226 lung
MALME-3M melanoma = tested on: MALME-3M melanoma
SF-268 CNS = tested on: SF-268 CNS
OVCAR-4 ovarian = tested on: OVCAR-4 ovarian
UO-31 renal = tested on: UO-31 renal
HL-60(TB) leukemia = tested on: HL-60(TB) leukemia
TK-10 renal = tested on: TK-10 renal
RXF 393 renal = tested on: RXF 393 renal
PC-3 prostate = tested on: PC-3 prostate
HS 578T breast = tested on: HS 578T breast
OVCAR-5 ovarian = tested on: OVCAR-5 ovarian
DU-145 prostate = tested on: DU-145 prostate
KM12 colon = tested on: KM12 colon
BT-549 breast = tested on: BT-549 breast
HOP-62 NSCLC = tested on: HOP-62 NSCLC
HCC-2998 colon = tested on: HCC-2998 colon
COLO 205 colon = tested on: COLO 205 colon
OVCAR-8 ovarian = tested on: OVCAR-8 ovarian
HCT-116 colon = tested on: HCT-116 colon

For `C#Cc1nc(C(=O)NCCC(=O)Nc2ccc(NC(=O)c3ccc(/C=C/C(=O)c4nccn4C)cc3)cc2)cs1`, which GI50 (SF-539 CNS) is on record?
Its GI50 is 0.911 µM.

What about the TGI (SF-539 CNS) of the same compound?
Its TGI is 1.67 µM.

And the GI50 (T-47D breast)?
Its GI50 is 2.22 µM.

And the TGI (T-47D breast)?
The TGI was over 50 µM.

And the GI50 (SW-620 colon)?
Its GI50 is 1.23 µM.

And the TGI (SW-620 colon)?
The TGI was 2.83 µM.

What about the GI50 (SK-MEL-5 melanoma) of the same compound?
Its GI50 is 3.13 µM.

And the TGI (SK-MEL-5 melanoma)?
The TGI was 11.1 µM.

What about the GI50 (SK-MEL-28 melanoma) of the same compound?
Its GI50 is 7 µM.

And the TGI (SK-MEL-28 melanoma)?
Its TGI is 29.9 µM.

And the GI50 (U251 CNS)?
Its GI50 is 0.886 µM.

And the TGI (U251 CNS)?
Its TGI is 2.04 µM.

What about the GI50 (IGROV1 ovarian) of the same compound?
The GI50 was 0.878 µM.

What about the TGI (IGROV1 ovarian) of the same compound?
The TGI was 1.8 µM.

What about the GI50 (K-562 leukemia) of the same compound?
The GI50 was 1.2 µM.

What about the TGI (K-562 leukemia) of the same compound?
The TGI was over 50 µM.

What about the GI50 (MDA-MB-231 breast) of the same compound?
The GI50 was 1.13 µM.

What about the TGI (MDA-MB-231 breast) of the same compound?
Its TGI is 2.6 µM.

And the GI50 (SF-295 CNS)?
Its GI50 is 2.37 µM.

What about the TGI (SF-295 CNS) of the same compound?
The TGI was 8.43 µM.

What about the GI50 (SNB-19 CNS) of the same compound?
Its GI50 is 1.83 µM.

And the TGI (SNB-19 CNS)?
The TGI was 7.4 µM.

What about the GI50 (SK-OV-3 ovarian) of the same compound?
Its GI50 is 11.5 µM.

And the TGI (SK-OV-3 ovarian)?
Its TGI is over 50 µM.

And the GI50 (MDA-MB-435)?
Its GI50 is 1.71 µM.

What about the TGI (MDA-MB-435) of the same compound?
The TGI was 6.79 µM.

What about the GI50 (SK-MEL-2 melanoma) of the same compound?
Its GI50 is 35.8 µM.

And the TGI (SK-MEL-2 melanoma)?
The TGI was over 50 µM.

And the GI50 (NCI-H522 lung)?
The GI50 was 1.04 µM.

What about the TGI (NCI-H522 lung) of the same compound?
Its TGI is 2.27 µM.

And the GI50 (HCT-15 colon)?
The GI50 was 0.85 µM.

And the TGI (HCT-15 colon)?
Its TGI is 1.98 µM.

What about the GI50 (CAKI-1 renal) of the same compound?
The GI50 was 2.41 µM.

What about the TGI (CAKI-1 renal) of the same compound?
The TGI was 20.1 µM.

And the GI50 (UACC-257 melanoma)?
The GI50 was 18.7 µM.

What about the TGI (UACC-257 melanoma) of the same compound?
The TGI was over 50 µM.

And the GI50 (SNB-75 CNS)?
The GI50 was 1.43 µM.

And the TGI (SNB-75 CNS)?
Its TGI is 9.71 µM.

What about the GI50 (EKVX NSCLC) of the same compound?
Its GI50 is 2.79 µM.

And the TGI (EKVX NSCLC)?
The TGI was over 50 µM.

And the GI50 (A549 NSCLC)?
The GI50 was 2.23 µM.

What about the TGI (A549 NSCLC) of the same compound?
The TGI was over 50 µM.

And the GI50 (A498 renal)?
Its GI50 is 7.39 µM.

What about the TGI (A498 renal) of the same compound?
Its TGI is 19.2 µM.

And the GI50 (CCRF-CEM leukemia)?
The GI50 was 0.954 µM.

And the TGI (CCRF-CEM leukemia)?
The TGI was 2.32 µM.

What about the GI50 (NCI-H23 lung) of the same compound?
The GI50 was 1.22 µM.

And the TGI (NCI-H23 lung)?
The TGI was 3.41 µM.

What about the GI50 (ACHN renal) of the same compound?
The GI50 was 0.899 µM.

What about the TGI (ACHN renal) of the same compound?
Its TGI is 1.66 µM.

And the GI50 (HOP-92 NSCLC)?
The GI50 was 1.07 µM.

What about the TGI (HOP-92 NSCLC) of the same compound?
The TGI was 2.78 µM.

And the GI50 (786-0 renal)?
The GI50 was 0.939 µM.

What about the TGI (786-0 renal) of the same compound?
The TGI was 1.76 µM.

And the GI50 (HT29 colon)?
The GI50 was 1.13 µM.

What about the TGI (HT29 colon) of the same compound?
The TGI was 2.54 µM.

What about the GI50 (MOLT-4 leukemia) of the same compound?
The GI50 was 1.29 µM.

And the TGI (MOLT-4 leukemia)?
The TGI was 3.53 µM.

What about the GI50 (NCI-H460 lung) of the same compound?
Its GI50 is 1.57 µM.

And the TGI (NCI-H460 lung)?
Its TGI is 4.6 µM.

What about the GI50 (SN12C renal) of the same compound?
The GI50 was 1.3 µM.

And the TGI (SN12C renal)?
The TGI was 4.49 µM.

And the GI50 (RPMI-8226 leukemia)?
The GI50 was 0.934 µM.

What about the TGI (RPMI-8226 leukemia) of the same compound?
Its TGI is 2.2 µM.

And the GI50 (MCF7 breast)?
The GI50 was 1.26 µM.

And the TGI (MCF7 breast)?
The TGI was 4.98 µM.

What about the GI50 (UACC-62 melanoma) of the same compound?
Its GI50 is 3.01 µM.

What about the TGI (UACC-62 melanoma) of the same compound?
The TGI was 10.9 µM.

And the GI50 (NCI/ADR-RES ovarian)?
The GI50 was 3.27 µM.

What about the TGI (NCI/ADR-RES ovarian) of the same compound?
Its TGI is over 50 µM.

What about the GI50 (M14 melanoma) of the same compound?
Its GI50 is 3.43 µM.

And the TGI (M14 melanoma)?
Its TGI is 20.8 µM.

What about the GI50 (NCI-H226 lung) of the same compound?
Its GI50 is 1.35 µM.

What about the TGI (NCI-H226 lung) of the same compound?
The TGI was 4.02 µM.

And the GI50 (MALME-3M melanoma)?
The GI50 was 1.4 µM.

And the TGI (MALME-3M melanoma)?
The TGI was 4.64 µM.

And the GI50 (SF-268 CNS)?
The GI50 was 1.72 µM.

And the TGI (SF-268 CNS)?
Its TGI is 13.3 µM.

And the GI50 (OVCAR-4 ovarian)?
The GI50 was 24.9 µM.

What about the TGI (OVCAR-4 ovarian) of the same compound?
Its TGI is over 50 µM.

What about the GI50 (UO-31 renal) of the same compound?
The GI50 was 0.763 µM.

What about the TGI (UO-31 renal) of the same compound?
Its TGI is 1.49 µM.

What about the GI50 (HL-60(TB) leukemia) of the same compound?
The GI50 was 0.857 µM.

What about the TGI (HL-60(TB) leukemia) of the same compound?
Its TGI is 2.53 µM.

And the GI50 (TK-10 renal)?
The GI50 was 8.94 µM.

What about the TGI (TK-10 renal) of the same compound?
The TGI was over 50 µM.

And the GI50 (RXF 393 renal)?
The GI50 was 1.04 µM.

And the TGI (RXF 393 renal)?
Its TGI is 2.75 µM.

What about the GI50 (PC-3 prostate) of the same compound?
The GI50 was 1.38 µM.

What about the TGI (PC-3 prostate) of the same compound?
The TGI was 3.88 µM.

And the GI50 (HS 578T breast)?
Its GI50 is 4.55 µM.

What about the TGI (HS 578T breast) of the same compound?
The TGI was over 50 µM.

What about the GI50 (OVCAR-5 ovarian) of the same compound?
Its GI50 is 1.58 µM.

And the TGI (OVCAR-5 ovarian)?
Its TGI is 4.94 µM.

And the GI50 (DU-145 prostate)?
Its GI50 is 2.32 µM.

And the TGI (DU-145 prostate)?
Its TGI is over 50 µM.

What about the GI50 (KM12 colon) of the same compound?
The GI50 was 2.88 µM.

What about the TGI (KM12 colon) of the same compound?
The TGI was 32.5 µM.

What about the GI50 (BT-549 breast) of the same compound?
The GI50 was 1.76 µM.

And the TGI (BT-549 breast)?
The TGI was 11.3 µM.

And the GI50 (HOP-62 NSCLC)?
Its GI50 is 1.15 µM.

And the TGI (HOP-62 NSCLC)?
The TGI was 2.83 µM.

What about the GI50 (HCC-2998 colon) of the same compound?
The GI50 was 2.14 µM.

What about the TGI (HCC-2998 colon) of the same compound?
The TGI was 7.95 µM.

What about the GI50 (COLO 205 colon) of the same compound?
The GI50 was 4.95 µM.

And the TGI (COLO 205 colon)?
The TGI was 47 µM.

And the GI50 (OVCAR-8 ovarian)?
The GI50 was 1.75 µM.

What about the TGI (OVCAR-8 ovarian) of the same compound?
The TGI was over 50 µM.

What about the GI50 (HCT-116 colon) of the same compound?
The GI50 was 1 µM.

What about the TGI (HCT-116 colon) of the same compound?
The TGI was 2.1 µM.
